Experimental data taken from patent US9637451B2, “Indole compound” (ASTELLAS PHARMA INC., priority 2014, dated 2017).

Columns and labels:
rat = experiment: Measurement test of electroencephalogram in rat (sleep-awake cycle); format: in vivo; conditions: oral
From the text: After the completion of a quarantine period, the animals showing no abnormal health condition were subjected to an electroencephalogram electrode chronic implantation surgery with reference to brain atlas of Pellegrino (Plenum Press, New York (1979)), or the like. Under anesthesia with pentobarbital sodium, the rat was calibrated in a brain stereotaxic apparatus. In the frontal cortex, a monopolar silver ball electrode having a diameter of the tip of about 1 mm was placed on a hard film of the brain. Into the hippocampus, a laminated bipolar electrodes made of stainless steel was stuck. The reference electrode was screwed around the olfactory brain. Further, as for the electromyogram measurement, the lead wire was implanted in the both electrodes about 1 cm between the electrodes in the neck portion. The other end was exposed to the head portion subcutaneously. The electrodes and the lead wires were subjected to soldering with connector sockets and fixed to the skull with a dental resin or the like.
The rats were accommodated in a measurement cage under rat feeding and water supply on the morning of the day of administration, and accustomed to the measurement environment. After measuring the weight using an electronic scale balance, a lead wire and a connector socket were connected 30 minutes or more before the start of the electroencephalogram measurement, and the rat was accustomed in the measurement state under no anesthesia and no custody. The test compounds were intraperitoneally or orally administered to the rats and the electroencephalogram was measured continuously until 6 hours after the administration.
Ramelteon: solvent, 0.1 mg/kg, 1 mg/kg, and 10 mg/kg; intraperitoneal administration
Example 1: solvent, 3 mg/kg, 30 mg/kg, and 300 mg/kg; oral administration
Example 6: solvent, 10 mg/kg, 30 mg/kg, and 300 mg/kg; oral administration
The electrical signals of electroencephalogram and of electromyogram were applied to an electroencephalogram system and an electroencephalogram frequency analysis program of a personal computer was used to acquire the wave form of the electroencephalogram from the electroencephalograph system. In addition, the image signals of the electroencephalogram waveform were applied to an EEG video system and recorded on DVD-R using a DVD recorder. The behavior observation was carried out through a video camera at the same time as the electroencephalogram measurement and the images were also recorded on DVD-R using DVD recorder.
The presence or absence of abnormality in the electroencephalogram waveform in up to 6 hours from immediately after the administration, to each animal, respectively, was observed.
The analysis of a sleep-awake cycle was carried out using a sleep stage display-supporting program (MTS50061B, Japan Santec Corporation) based on the electroencephalogram waveforms acquired with an electroencephalogram frequency analysis program. Using the index of electroencephalogram, electromyogram, and behavior, the sleep steps were classified into an awake phase, a rest phase, a slow wave light sleep (S.W.L.S.) phase, a slow wave deep sleep (S.W.D.S.) phase, and a fast wave sleep (F.W.S., REM sleep) phase. Further, the rest phase, the slow wave light sleep phase, and the slow wave deep sleep phase were summed to determine a slow wave sleep (S.W.S., Non-REM sleep) phase. […] As the assessment criteria in the respective sleep steps, the criteria described in Japanese Pharmacological Journal 84, 25-89 (1984) were used.

human MT1 receptor = molecular target: T1, human MT1 receptor (Homo sapiens, UniProt P48039); experiment: Activation of human MT1 receptor in receptor-expressing cells, intracellular Ca2+ by FLIPR; format: cell-based
T1 construct: expressed in transfected cells
T1 sequence (P48039 whole entry): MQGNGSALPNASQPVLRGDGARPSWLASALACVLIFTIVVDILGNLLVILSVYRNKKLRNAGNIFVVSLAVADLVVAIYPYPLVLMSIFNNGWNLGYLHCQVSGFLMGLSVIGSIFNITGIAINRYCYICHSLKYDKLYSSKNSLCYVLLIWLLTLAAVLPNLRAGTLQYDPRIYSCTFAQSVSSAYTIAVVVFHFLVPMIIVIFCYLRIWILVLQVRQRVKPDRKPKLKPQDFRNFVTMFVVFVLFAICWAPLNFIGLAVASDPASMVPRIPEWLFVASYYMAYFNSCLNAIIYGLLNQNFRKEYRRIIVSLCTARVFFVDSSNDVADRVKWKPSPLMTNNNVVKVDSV

In the case of `CC(=O)NCCc1c[nH]c2cc(F)c(OCCOc3ccn(C)n3)cc12` [Example 6, N-[2-(6-fluoro-5-{2-[(1-methyl-1H-pyrazol-3-yl)oxy]ethoxy}-1H-indol-3-yl)ethyl]acetamide], the “occupancy in the respective sleep steps of electroencephalogram” value (rat; 10 mg/kg and 30 mg/kg) is reported as “no change in the occupancy in the respective sleep steps of electroencephalogram could be seen”, the sleep action (rat; 10 mg/kg and 30 mg/kg) is reported as “there was no sleep action” and the electroencephalogram (rat; 300 mg/kg) is reported as “a variation in the electroencephalogram was observed”. It also gave an EC50 (human MT1 receptor; HEK293EBNA1 cells stably expressing human MT1 and Gq/i chimeric G protein, Ca2+ FLIPR) of 7.5 nM and an Emax (human MT1 receptor; maximum reaction by ramelteon taken as 100%) of 103%.
